Test results from EPA's ToxRefDB 2.

Key:
rat [1] = conditions: Sub-acute repeat dose toxicity, sprague dawley, Oral, Gavage/Intubation, dose end: 30 day, group: systemic
rat [2] = conditions: Sub-acute repeat dose toxicity, sprague dawley, Oral, Gavage/Intubation, dose end: 14 day, group: systemic
rat [3] = conditions: Sub-acute repeat dose toxicity, Oral, Gavage/Intubation, dose end: 7 day, group: systemic
dog [4] = conditions: Sub-acute repeat dose toxicity, beagle, Oral, Gavage/Intubation, dose end: 14 day, group: systemic
rat [5] = conditions: Sub-acute repeat dose toxicity; Oral; Gavage/Intubation; dose end: 14 day; group: systemic; systemic / in life observation / clinical signs / convulsions + systemic / in life observation / clinical signs / reduced activity + …
rat [6] = conditions: Prenatal developmental toxicity study, sprague dawley, Oral, Gavage/Intubation, dose end: 15 GD
rat [7] = conditions: Subchronic oral toxicity in rodents, sprague dawley, Feed, dose end: 90 day, group: systemic, systemic / in life observation / body weight / body weight + systemic / in life observation / body weight / body weight gain + systemic / in…
mouse [8] = conditions: Carcinogenicity, cd1, Oral, Feed, dose end: 81 week, group: systemic
rat [9] = conditions: Subchronic oral toxicity in rodents, sprague dawley, Feed, dose end: 90 day, group: systemic
rat [10] = conditions: Combined chronic toxicity/carcinogenicity, sprague dawley, Oral, [Not Specified], dose end: 2 year, group: systemic
rat [11] = conditions: Multigenerational reproductive toxicity study, sprague dawley, Oral, Feed, dose end: 2 generation; for LOAEL: systemic / organ weight / brain / nos
mouse [12] = conditions: Subchronic oral toxicity in rodents, other, Feed, dose end: 90 day, group: systemic
dog [13] = conditions: Chronic toxicity, beagle, Oral, Capsule, dose end: 12 month, group: systemic
rat [14] = conditions: Subchronic oral toxicity in rodents, sprague dawley, Feed, dose end: 90 day, group: systemic; remark: listed apart in the source
rat [15] = conditions: Subchronic oral toxicity in rodents, sprague dawley, Feed, dose end: 93 day, group: systemic
[16] = systemic / clinical chemistry / aspartate aminotransferase (ast/sgot) / aspartate aminotransferase (ast/sgot) + systemic / clinical …
[17] = systemic / clinical chemistry / [other] / [other] + systemic / in life observation / body weight / body weight gain + systemic / in life …
[18] = systemic / pathology microscopic / liver / fatty change + systemic / pathology microscopic / liver / hypertrophy
[19] = systemic / clinical chemistry / cholesterol / cholesterol + systemic / clinical chemistry / gamma glutamyl transferase (ggt) / gamma …
[20] = systemic / in life observation / clinical signs / abnormal feces + systemic / in life observation / clinical signs / arrhythmia
[21] = systemic / in life observation / clinical signs / abnormal feces + systemic / in life observation / clinical signs / arrhythmia + systemic…
[22] = group: developmental, developmental / developmental malformation / bone / incomplete ossification + systemic / in life observation / body weight / fetal weight
[23] = group: maternal, systemic / in life observation / body weight / body weight gain + systemic / in life observation / food consumption / food consumption
[24] = systemic / in life observation / body weight / body weight + systemic / in life observation / body weight / body weight gain + systemic / in…
[25] = systemic / organ weight / liver / relative to body weight + systemic / pathology microscopic / liver / cytoplasmic alteration + systemic / …
[26] = group: offspring, systemic / organ weight / brain / nos + systemic / in life observation / body weight / offspring (pup) weight + systemic / organ weight / …
[27] = systemic / organ weight / liver / relative to brain weight + systemic / pathology gross / liver / [other] + systemic / pathology microscopic…
[28] = systemic / pathology microscopic / spleen / pigmentation
[29] = systemic / clinical chemistry / alkaline phosphatase (alp/alk) / alkaline phosphatase (alp/alk) + systemic / clinical chemistry / …
[30] = systemic / clinical chemistry / alkaline phosphatase (alp/alk) / alkaline phosphatase (alp/alk) + systemic / in life observation / clinical …
[31] = systemic / organ weight / liver / absolute + systemic / organ weight / liver / relative to body weight + systemic / organ weight / liver / …
[32] = systemic / pathology gross / liver / [other] + systemic / pathology microscopic / thyroid gland / colloid content
[33] = systemic / clinical chemistry / cholesterol / cholesterol + systemic / organ weight / liver / absolute + systemic / organ weight / liver / …
[34] = systemic / pathology gross / liver / enlarged

## CC[C@H]1CC[C@H](NCc2cc3c(cc2OC)[C@H]2C[C@H]2C(=O)N3C)[C@H](c2ccccc2)N1
Rat [1]; [16]
  LOAEL: > 100 mg/kg/day
  NEL: 3 mg/kg/day
  NOAEL: ≥ 100 mg/kg/day
Rat [1]; systemic / in life observation / clinical signs / salivation + systemic / organ weight / liver / absolute
  LEL: 30 mg/kg/day
Rat [2]; [17]
  LOAEL: > 100 mg/kg/day
  NOAEL: ≥ 100 mg/kg/day
Rat [2]; [18]
  LEL: 6 mg/kg/day
  NEL: < 6 mg/kg/day
Rat [3]; [19]
  LOAEL: > 100 mg/kg/day
  NEL: 3 mg/kg/day
  NOAEL: ≥ 100 mg/kg/day
Rat [3]; systemic / organ weight / liver / absolute
  LEL: 30 mg/kg/day
Dog [4]; [20]
  LEL: 3 mg/kg/day
  NEL: < 3 mg/kg/day
Dog [4]; [21]
  LOAEL: > 15 mg/kg/day
  NOAEL: ≥ 15 mg/kg/day
Rat [5]
  LEL: 100 mg/kg/day
  LOAEL: > 100 mg/kg/day
  NOAEL: ≥ 100 mg/kg/day

## CSC1=N[C@@](C)(c2ccccc2)C(=O)N1Nc1ccccc1 [Fenamidone]
Rat [6]; [22]
  LEL: 1000 mg/kg/day
  LOAEL: 1000 mg/kg/day
  NEL: 150 mg/kg/day
  NOAEL: 150 mg/kg/day
Rat [6]; [23]
  LEL: 1000 mg/kg/day
  LOAEL: 1000 mg/kg/day
  NEL: 150 mg/kg/day
  NOAEL: 150 mg/kg/day
Rat [7]
  LEL: 305 mg/kg/day
  LOAEL: 305 mg/kg/day
  NEL: 29.7 mg/kg/day
  NOAEL: 29.7 mg/kg/day
Mouse [8]; [24]
  LOAEL: 526 mg/kg/day
  NEL: 9.5 mg/kg/day
  NOAEL: 47.5 mg/kg/day
Mouse [8]; systemic / organ weight / liver / nos
  LEL: 47.5 mg/kg/day
Rat [9]; systemic / clinical chemistry / aspartate aminotransferase (ast/sgot) / aspartate aminotransferase (ast/sgot)
  LEL: 10.4 mg/kg/day
Rat [9]; systemic / organ weight / liver / relative to body weight + systemic / pathology microscopic / liver / cytoplasmic alteration
  LOAEL: 68.3 mg/kg/day
Rat [9]; [25]
  NEL: 4.05 mg/kg/day
  NOAEL: 10.4 mg/kg/day
Rat [10]; systemic / organ weight / uterus / absolute + systemic / organ weight / uterus / relative to body weight
  NEL: 335 mg/kg/day
Rat [10]; systemic / pathology microscopic / thyroid gland / hyperplasia
  LOAEL: 7.07 mg/kg/day
Rat [10]; systemic / pathology microscopic / thyroid gland / hyperplasia + systemic / clinical chemistry / alanine aminotransferase (alt/sgpt) / …
  NOAEL: 2.83 mg/kg/day
Rat [11]; group: offspring
  LOAEL: 89.2 mg/kg/day
Rat [11]; group: offspring, systemic / organ weight / brain / nos + systemic / in life observation / body weight / offspring (pup) weight
  LEL: 89.2 mg/kg/day
Rat [11]; [26]
  NEL: 5.45 mg/kg/day
  NOAEL: 5.45 mg/kg/day
Rat [11]; group: parental, systemic / in life observation / food consumption / food consumption
  LEL: 63.8 mg/kg/day
Rat [11]; group: parental, systemic / in life observation / food consumption / food consumption + systemic / in life observation / body weight / body weight + systemic…
  NEL: 3.9 mg/kg/day
Rat [11]; group: parental
  LOAEL: 89.2 mg/kg/day
Rat [11]; group: parental, systemic / organ weight / brain / nos + systemic / in life observation / body weight / body weight + systemic / organ weight / liver / …
  NOAEL: 5.45 mg/kg/day
Mouse [12]; [27]
  LOAEL: 220 mg/kg/day
  NOAEL: 44.5 mg/kg/day
Mouse [12]; [28]
  LEL: 11.3 mg/kg/day
  NEL: < 11.3 mg/kg/day
Dog [13]; [29]
  LEL: 1000 mg/kg/day
  LOAEL: 1000 mg/kg/day
Dog [13]; [30]
  NEL: 100 mg/kg/day
  NOAEL: 100 mg/kg/day
Rat [14]; [31]
  LOAEL: 32.9 mg/kg/day
  NOAEL: 6.42 mg/kg/day
Rat [14]; [32]
  LEL: 6.42 mg/kg/day
  NEL: < 6.42 mg/kg/day
Rat [15]; [33]
  LOAEL: 93.3 mg/kg/day
  NOAEL: 9.4 mg/kg/day
Rat [15]; [34]
  LEL: 9.4 mg/kg/day
  NEL: < 9.4 mg/kg/day
